Key:
Details in all cases: stereoisomer not certain
[1] = RP, 150 × 2.1 mm, 2.6 µm, 40 °C, 0.35 mL/min, estimated dead time 0.94 min; A: water + 0.1% formic acid, pH 3; B: acetonitrile + 0.1% formic acid, pH 3; gradient (min/%B) 0/0 1/0 12.5/100 14/100 14.2/0 15/0
[2] = RP, Waters ACQUITY UPLC HSS T3, 100 × 2.1 mm, 1.8 µm, 30 °C, 0.4 mL/min, estimated dead time 0.55 min; A: water + 0.1% formic acid, pH 3; B: acetonitrile + 0.1% formic acid, pH 3; gradient (min/%B) 0/0 2/0 15/100 22/100 22.1/0 26/0
[3] = RP, Agilent InfinityLab Poroshell 120 EC-C18, 100 × 3 mm, 2.7 µm, 25 °C, 0.4 mL/min, estimated dead time 1.1 min; A: water + 0.1% formic acid, pH 3; B: acetonitrile + 0.1% formic acid, pH 3; gradient (min/%B) 0/5 10/25 20/40 24/90 25/90 26/5 30/5
[4] = RP, 150 × 2.1 mm, 2.6 µm, 40 °C, 0.35 mL/min, estimated dead time 0.94 min; A: water + 0.1% formic acid, pH 3; B: acetonitrile + 0.1% formic acid, pH 3; gradient (min/%B) 0/0 1/5 7/45 8.5/80 10.5/80 11/5 12/5
[5] = RP, Waters Atlantis T3, 100 × 2.1 mm, 3 µm, 40 °C, 0.3 mL/min, estimated dead time 0.73 min; A: water + 0.1% trifluoroacetic acid, pH 2; B: acetonitrile + 0.1% trifluoroacetic acid, pH 2; gradient (min/%B) 0/10 1/10 6/40 7/50 8/50 14/70 16/80 20/10 25/10
[6] = RP, Agilent ZORBAX RRHD Eclipse Plus C18, 50 × 2.1 mm, 1.8 µm, 30 °C, 0.4 mL/min, estimated dead time 0.28 min; A: water + 0.1% formic acid, pH 3; B: acetonitrile + 0.1% formic acid, pH 3; gradient (min/%B) 0/1 5/10 8/25 9.1/99 10/99 12/1
[7] = RP, Agilent ZORBAX RRHD Eclipse Plus C18, 50 × 2.1 mm, 1.8 µm, 30 °C, 0.4 mL/min, estimated dead time 0.28 min; A: water + 0.1% formic acid, pH 3; B: acetonitrile + 0.1% formic acid, pH 3; gradient (min/%B) 0/1 5/10 8/25 9.1/99 10/99 12/99
[8] = RP, Phenomenex Kinetex EVO C18, 100 × 2.1 mm, 2.6 µm, 40 °C, 0.4 mL/min, estimated dead time 0.55 min; A: water + 0.2% formic acid; B: acetonitrile + 0.2% formic acid; gradient (min/%B) 0/5 0.5/5 7/95 8/95 8.5/5 12/5
[9] = RP, Phenomenex Synergi Hydro-RP, 250 × 2 mm, 4 µm, 25 °C, 0.2 mL/min, estimated dead time 2.5 min; A: water + 0.1% formic acid, pH 3; B: acetonitrile + 0.1% formic acid, pH 3; gradient (min/%B) 0/0.5 7/0.5 12/12.5 25/16.3 47/35 48/65 50/65 50.1/0.5
[10] = RP, Waters ACQUITY UPLC HSS T3, 100 × 2.1 mm, 50 °C; A: water + 0.1% formic acid, pH 3; B: 30% methanol + 70% acetonitrile + 0.1% formic acid, pH 3; gradient (min/%B) 0/5 1/8 2/15 3/40 4/70 4.5/100 5/100 6.4/100 6.6/5 6.8/5 7/5
[11] = RP, Waters ACQUITY UPLC BEH C18, 100 × 2.1 mm, 1.7 µm, 65 °C, 0.4 mL/min, estimated dead time 0.55 min; A: water + 0.1% formic acid, pH 3; B: 80% acetonitrile + 20% acetone + 0.1% formic acid, pH 3; gradient (min/%B) 0/0 5/100 5.5/0 6/0

SMILES: Oc1cc(O)c2c(c1)OC(c1cc(O)c(O)c(O)c1)C(O)C2 (single isomer, unassigned; (-)) [(-)-Epigallocatechin]
- LC retention time [1]: 4.2 min
- LC retention time [2]: 7.91 min
- LC retention time [3]: 4.79 min
- LC retention time [4]: 4.07 min
- LC retention time [5]: 2.05 min

SMILES: O=Cc1ccc(O)c(O)c1 [3,4-Dihydroxybenzaldehyde]
- LC retention time [6]: 4.12 min
- LC retention time [7]: 3.73 min
- LC retention time [8]: 2.18 min

SMILES: O=C(O)CCc1cccc(O)c1 [3-(3-hydroxyphenyl)propanoic acid]
- LC retention time [2]: 9.17 min
- LC retention time [6]: 7.32 min
- LC retention time [9]: 29.5 min
- LC retention time [7]: 7.28 min
- LC retention time [8]: 4.51 min

SMILES: O=C(O)CNC(=O)c1ccc(O)cc1 [4-Hydroxyhippuric acid]
- LC retention time [1]: 3.82 min
- LC retention time [6]: 3.19 min
- LC retention time [4]: 3.56 min
- LC retention time [10]: 2.19 min
- LC retention time [7]: 1.63 min
- LC retention time [8]: 1.55 min

SMILES: CC(C)=CCc1c(O)cc(O)c2c1OC(c1ccc(O)cc1)CC2=O (stereo unspecified) [8-prenylnaringenin]
- LC retention time [5]: 12.7 min

SMILES: O=C(O)C=Cc1ccc(OC2OC(C(=O)O)C(O)C(O)C2O)c(O)c1 (stereo unspecified) [Caffeic acid-4-glucuronide]
- LC retention time [6]: 3.98 min
- LC retention time [7]: 1.78 min
- LC retention time [8]: 2.45 min

SMILES: CC(C)c1cc2c(c(O)c1O)C1(C(=O)O)CCCC(C)(C)C1CC2 (stereo unspecified) [Carnosic acid]
- LC retention time [5]: 15.2 min

SMILES: CC(C)c1cc2c(c(O)c1O)C13CCCC(C)(C)C1CC2OC3=O (stereo unspecified) [Carnosol]
- LC retention time [11]: 4.02 min
- LC retention time [10]: 4.52 min
- LC retention time [5]: 16.3 min

SMILES: COc1ccc(C2CC(=O)c3c(O)cc(OC4OC(COC5OC(C)C(O)C(O)C5O)C(O)C(O)C4O)cc3O2)cc1 (stereo unspecified) [Didymin]
- LC retention time [5]: 9.08 min

SMILES: COc1ccc(CCC(=O)O)cc1OC1OC(C(=O)O)C(O)C(O)C1O (stereo unspecified) [Dihydro isoferulic acid-3-O-glucuronide]
- LC retention time [6]: 6.49 min
- LC retention time [7]: 6.53 min
- LC retention time [8]: 4.22 min

SMILES: O=C(O)CCc1ccc(O)c(OC2OC(C(=O)O)C(O)C(O)C2O)c1 (stereo unspecified) [Dihydrocaffeic acid-3-O-glucuronide]
- LC retention time [6]: 5.11 min
- LC retention time [7]: 3.94 min
- LC retention time [8]: 3.22 min

SMILES: O=C(O)CCc1ccc(O)c(OS(=O)(=O)O)c1 [Dihydrocaffeic acid-3-O-sulfate]
- LC retention time [6]: 5.08 min
- LC retention time [7]: 2.83 min
- LC retention time [8]: 4.04 min

SMILES: COc1cc(CCC(=O)O)ccc1OS(=O)(=O)O [Dihydroferulic acid-4-O-Sulfate]
- LC retention time [6]: 5.86 min
- LC retention time [7]: 4.05 min
- LC retention time [8]: 4.36 min

SMILES: COc1cc(C=CC(=O)O)ccc1OS(=O)(=O)O [Ferulic acid 4-O-sulfate]
- LC retention time [6]: 6.22 min
- LC retention time [7]: 4.67 min
- LC retention time [8]: 4.59 min

SMILES: COc1cc(C=CC(=O)O)ccc1OC1OC(C(=O)O)C(O)C(O)C1O (stereo unspecified) [Ferulic acid-4-O-glucuronide]
- LC retention time [6]: 4.81 min
- LC retention time [7]: 3.24 min
- LC retention time [8]: 3.62 min

SMILES: COc1ccc(C2CC(=O)c3c(O)cc(O)cc3O2)cc1OC1OC(C(=O)O)C(O)C(O)C1O (stereo unspecified) [Hesperetin 3'-O-glucuronide]
- LC retention time [3]: 12.2 min
- LC retention time [8]: 5.32 min

SMILES: COc1ccc(C=CC(=O)O)cc1OS(=O)(=O)O [Isoferulic acid 3-O-sulfate]
- LC retention time [6]: 6.76 min
- LC retention time [7]: 5.94 min
- LC retention time [8]: 4.79 min

SMILES: COc1ccc(C=CC(=O)O)cc1OC1OC(C(=O)O)C(O)C(O)C1O (stereo unspecified) [Isoferulic acid-3-O-glucuronide]
- LC retention time [6]: 6.36 min
- LC retention time [9]: 34.4 min
- LC retention time [7]: 6.38 min
- LC retention time [8]: 4.25 min

SMILES: COc1ccc(C(=O)O)cc1OS(=O)(=O)O [Isovanillic acid-3-O-sulfate]
- LC retention time [6]: 3.98 min
- LC retention time [7]: 3.47 min
- LC retention time [8]: 3.68 min

SMILES: COc1cc(O)c(CC=C(C)C)c2c1C(=O)CC(c1ccc(O)cc1)O2 (stereo unspecified) [Isoxanthumol]
- LC retention time [5]: 11.1 min

SMILES: CC1OC(OCC2OC(Oc3cc(O)c4c(c3)OC(c3ccc(O)cc3)CC4=O)C(O)C(O)C2O)C(O)C(O)C1O (stereo unspecified) [Narirutin]
- LC retention time [5]: 7.65 min

SMILES: Oc1cc(O)c2c(c1)OC(c1ccc(O)c(O)c1)C(O)C2c1c(O)cc(O)c2c1OC(c1ccc(O)c(O)c1)C(O)C2c1c(O)cc(O)c2c1OC(c1ccc(O)c(O)c1)C(O)C2 (stereo unspecified) [Procyanidin C1]
- LC retention time [5]: 6.03 min

SMILES: O=C(O)c1ccc(O)c(OC2OC(C(=O)O)C(O)C(O)C2O)c1 (stereo unspecified) [Protocatechuic acid-3-O-glucuronide]
- LC retention time [6]: 2.8 min
- LC retention time [7]: 1.12 min
- LC retention time [8]: 1.44 min

SMILES: O=C(O)c1ccc(OS(=O)(=O)O)c(O)c1 [Protocatechuic acid-4-O-sulfate]
- LC retention time [6]: 2.44 min
- LC retention time [7]: 0.954 min
- LC retention time [8]: 2.38 min

SMILES: O=C(O)c1ccc(OC2OC(C(=O)O)C(O)C(O)C2O)c(O)c1 (stereo unspecified) [Protocatechuic acid-4-glucuronide]
- LC retention time [8]: 1.03 min

SMILES: Oc1cccc(O)c1O [Pyrogallol]
- LC retention time [1]: 2.06 min
- LC retention time [4]: 1.87 min
- LC retention time [5]: 1.93 min

SMILES: O=c1c(OC2OC(CO)C(O)C(O)C2O)c(-c2ccc(OC3OC(CO)C(O)C(O)C3O)c(O)c2)oc2cc(O)cc(O)c12 (stereo unspecified) [Quercetin-3,4'-diglucoside]
- LC retention time [1]: 5.13 min
- LC retention time [9]: 29.1 min
- LC retention time [4]: 5.11 min
- LC retention time [5]: 6.4 min

SMILES: O=C(O)C1OC(Oc2cc(O)cc(C=Cc3ccc(O)cc3)c2)C(O)C(O)C1O (stereo unspecified) [Resveratrol 3-O-glucuronide]
- LC retention time [3]: 11 min
- LC retention time [8]: 4.85 min

SMILES: O=S(=O)(O)Oc1cc(O)cc(C=Cc2ccc(O)cc2)c1 [Resveratrol 3-O-sulfate]
- LC retention time [3]: 8.93 min
- LC retention time [8]: 5.89 min

SMILES: O=C(O)C1OC(Oc2ccc(C=Cc3cc(O)cc(O)c3)cc2)C(O)C(O)C1O (stereo unspecified) [Resveratrol 4-O-glucuronide]
- LC retention time [3]: 9.05 min
- LC retention time [8]: 4.64 min

SMILES: CC(C)c1cc2c(c(O)c1O)C13CCCC(C)(C)C1C(OC3=O)C2O (stereo unspecified) [Rosmanol]
- LC retention time [5]: 11.8 min

SMILES: COc1cc(O)c2c(c1)OC(c1ccc(O)cc1)CC2=O (stereo unspecified) [Sakuranetin]
- LC retention time [5]: 12.1 min

SMILES: O=c1oc2c(O)c(O)ccc2c2cc(O)c(O)cc12 [Urolithin  D]
- LC retention time [3]: 8.24 min
- LC retention time [8]: 4.68 min

SMILES: O=C(O)C1OC(Oc2ccc3c(c2)oc(=O)c2ccccc23)C(O)C(O)C1O (stereo unspecified) [Urolithin B-3-O-glucuronide]
- LC retention time [3]: 11.6 min
- LC retention time [8]: 5.23 min

SMILES: O=c1oc2cc(O)ccc2c2cc(O)c(O)cc12 [Urolithin C]
- LC retention time [3]: 10.3 min
- LC retention time [8]: 5.11 min

SMILES: COc1cc(C(=O)O)ccc1OS(=O)(=O)O [Vanillic acid-4-O-sulfate]
- LC retention time [6]: 3.82 min
- LC retention time [7]: 2 min
- LC retention time [8]: 3.13 min

SMILES: COc1cc(O)c(CC=C(C)C)c(O)c1C(=O)C=Cc1ccc(O)cc1 [Xanthohumol]
- LC retention time [5]: 15.4 min

SMILES: O=c1c(O)c(-c2ccc(O)cc2)oc2cc(OC3OC(CO)C(O)C(O)C3O)cc(O)c12 (stereo unspecified) [kaempferol-7-O-glucoside]
- LC retention time [9]: 38.3 min
- LC retention time [5]: 7.37 min

SMILES: O=C(O)c1ccc(O)c(OS(=O)(=O)O)c1 [protocatechuic acid-3-O-sulfate]
- LC retention time [8]: 2.38 min

Reference: the RepoRT retention time repository (doi:10.1016/j.foodchem.2021.129757)
